From publication PMC11527646, “Pharmacological blockade of the mast cell MRGPRX2 receptor supports investigation of its relevance in skin disorders” (Frontiers in Immunology, 2024)

Target: T1, MRGPRX2 (Homo sapiens, UniProt Q96LB1)
T1 sequence (Q96LB1 1-330): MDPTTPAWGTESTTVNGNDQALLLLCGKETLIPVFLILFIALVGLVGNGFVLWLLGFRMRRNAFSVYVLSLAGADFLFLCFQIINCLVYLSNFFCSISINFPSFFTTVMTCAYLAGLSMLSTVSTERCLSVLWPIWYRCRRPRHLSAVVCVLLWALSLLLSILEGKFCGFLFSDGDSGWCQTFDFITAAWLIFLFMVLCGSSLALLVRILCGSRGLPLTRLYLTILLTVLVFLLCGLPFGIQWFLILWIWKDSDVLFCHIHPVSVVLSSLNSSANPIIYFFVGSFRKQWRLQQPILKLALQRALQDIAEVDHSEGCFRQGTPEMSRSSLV
Assay: Calcium imaging of peritoneal mast cells isolated from human MRGPRX2 KI mice
Type: cell-based
Details: 100 nM antagonist; Cpd 48/80 1 μg/mL; n ≥ 4
Protocol: Mouse peritoneal mast cells were purified and imaged as previously described ([4]). Mast cells were resuspended at 5 × 10^5 to 1 × 10^6 cells/mL in DMEM with 10% FBS and recombinant mouse SCF (25 ng/mL) and plated onto glass cover slips coated with fibronectin (30 µg/mL). For imaging, after 2 h of incubation at 37°C, 5% CO2, mast cells were loaded with Fluo-4 along with 0.02% Pluronic F-127 for 30 min at room temperature, washed three times in calcium imaging buffer (CIB), and used immediately for imaging. Cells were used within 2 h of loading. Cells were identified as responding if the [Ca^2+] rose by at least 50% for >10 s.
Figure 6 Oral treatment with the potent and selective MRGPRX2 antagonist, Compound B (3 mg/kg), blocks Cpd 48/80–induced itch response using human MRGPRX2 knock-in mice. […] Average ± SD blood-free concentration of antagonist measured at end of “itch” observation period was 19 ± 16 nM Compound B.

## C[C@@H](C(=O)Nc1cnc(Oc2ccc(F)cc2F)cn1)N1CCC(F)(F)[C@@H](c2cc[n+]([O-])cc2)C1 [Compound B]
  Effect on Cpd 48/80-mediated activation of peritoneal mast cells: completely antagonize
